Measurements reported in US11413305B2, “Use of agar-derived oligosaccharides for inhibiting growth of Staphylococcus” (Korea University Research and Business Foundation, priority 2017, dated 2022).

What was measured:
S. aureus (KCCM12256) = assay: Growth inhibition experiment in liquid medium (absorbance at 600 nm); assay type: cell-based, Staphylococcus aureus; conditions: for concentration at which growth was completely inhibited: liquid M9-based medium, 37° C., 200 rpm, OD600
Protocol: (§1) S. aureus (KCCM12256) and S. epidermidis (KCCM35494) distributed from the Korean Culture Center of Microorganisms were used. The medium for Staphylococci used a M9 salt supplemented with 2 mM MgSO4, 0.1 mM CaCl2), 1% (w/v) glucose, 1% (w/v) casamino acid, 1 mM thiamine HCl, and 0.05 mM nicotinamide. The thiamine-HCl solution and the nicotinamide solution were filtered using a filter having a pore size of 0.2 μm, and the other components were autoclaved at 121° C. for 15 minutes and used. After mixing the medium components according to their respective concentrations, the mixture was filtered again using a filter having a pore size of 0.2 μm.
(§2) In the growth inhibition experiment, the S. aureus and the S. epidermidis were seed-cultured at 37° C. and 200 rpm for 24 hours and then subcultured. After incubation up to the mid-exponential phase (OD600=2.5) through the subculture, the bacteria were inoculated into liquid media containing the agarooligosaccharide at concentrations of 0 mg/mL, 1 mg/mL, 2 mg/mL, and 4 mg/mL so that the initial absorbance (i.e., initial cell population) thereof at 600 nm was 0.01. Subsequently, each of the above was dispensed in 200 μl aliquots into a 96-well plate, and absorbance was measured while culturing the bacteria. The incubation and the absorbance measurement were performed using Synergy HTX Multi-Mode Reader commercially available from BioTek Instruments, Inc. The incubation was performed at 37° C. and 200 rpm, and the absorbance was measured at a wavelength of 600 nm. […]
The growth inhibition test of Staphylococci was carried out in the same manner as in Example 1, except that AHG (1, 2, 4, and 8 mg/mL) was used instead of the agarooligosaccharide. […]

S. epidermidis [1] = assay: Number of viable Staphylococci over culture time (CFU count); assay type: cell-based, Staphylococcus epidermidis
Protocol: (§3) In order to observe changes in staphylococcal growth according to culture time after the addition of agarobiose, the number of viable Staphylococci was monitored for 16 hours or 32 hours. To this end, the initial cell concentration was adjusted to an average of about 6.5×10^6 CFU/mL for both S. aureus and S. epidermidis, and the experiment was carried out at agarobiose concentrations of 0, 2, and 4 mg/mL.
(§4) The same culture conditions as in the method of Example 1 were applied, except that agarobiose concentrations of 0, 2, and 4 mg/mL were applied. At a working volume of 10 mL, the number of viable cells instead of absorbance was measured. To this end, the original sample was taken at each time point, diluted to 10^−3 to 10^−6 using 0.85% physiological saline, and then dispensed onto a trypticase soy agar (TSA; BD Bioscience, Franklin Lakes, N.J.) medium. After 16 to 24 hours, colony-forming unit (CFU)/mL was calculated and converted based on a dilution factor.

S. aureus [2] = assay: as above; assay type: cell-based, Staphylococcus aureus; conditions: agarobiose concentrations of 2 mg/mL or more
Protocol: as §3, §4

S. aureus [3] = assay: LIVE/DEAD BacLight cell viability assay; assay type: cell-based, Staphylococcus aureus; conditions: agarobiose 2 mg/mL, 8 hours post-treatment
Protocol: The effect of the addition of agarobiose on the survival of S. aureus was tested using an Invitrogen LIVE/DEAD BacLight bacterial viability kit. […] To this end, after adjusting the number of S. aureus in a liquid medium containing agarobiose at 2 mg/mL so that the absorbance at 600 nm was 0.5, the S. aureus was cultured at 37° C. and 200 rpm. At 0 and 8 hours after incubation, the cells were washed with 0.85% physiological saline, resuspended in PBS buffer, and stained in accordance with the kit's protocol. Equal volumes of SYTO® 9 and propidium iodide reagents included in the kit were added and then reacted for 15 minutes in the dark.

S. aureus [4] = assay: Disk diffusion assay; assay type: cell-based, Staphylococcus aureus; conditions: 50 to 150 μg/disk, 37° C., 16 hours
Protocol: (§5) The disk diffusion assay is a common method of determining whether microbial growth is inhibited based on the diffusion of antibiotics in a disk. Accordingly, agarobiose was dispensed in an amount of 0 to 150 μg/disk on each disk to observe the growth of Staphylococci.
(§6) To this end, a solid medium for a disk diffusion assay having the same composition as in Example 1 was used, except that 1.5% agar was added to the liquid medium. […] First, the disks were prepared such that they contained agarobiose in an aqueous state in amounts of 0, 50, 100, and 150 μg/disk. Subsequently, a staphylococcal culture was streaked on the provided solid medium using a sterile cotton swab so that the Staphylococci were evenly distributed on the medium, and the prepared disks were placed on the solid medium inoculated with the bacteria. Subsequently, after culturing the bacteria at 37° C. for 16 hours, it was observed that a zone of inhibition appeared.

[5] = tested on: S. epidermidis (KCCM35494); assay: Growth inhibition experiment in liquid medium (absorbance at 600 nm); assay type: cell-based, Staphylococcus epidermidis
Protocol: as §1
as §2, with “bacteria.” for “bacteria. The incubation and the absorbance measurement were performed using Synergy HTX Multi-Mode Reader commercially available from BioTek Instruments, Inc. The incubation was performed at 37° C. and 200 rpm, and the absorbance was measured at a wavelength of 600 nm.”

S. epidermidis [6] = assay: Disk diffusion assay; assay type: cell-based, Staphylococcus epidermidis; conditions: 50 to 150 μg/disk, 37° C., 16 hours
Protocol: as §5, §6

[7] = liquid medium, OD600, 1, 2, 4 and 8 mg/mL tested

For OC[C@H]1O[C@@H](O[C@H]2[C@H]3OC[C@@H]2OC(O)[C@H]3O)[C@H](O)[C@@H](O)[C@H]1O (mixture of isomers) [agarobiose], the “concentration at which growth was completely inhibited” value (S. aureus (KCCM12256)) was 2 mg/mL, the “decrease in number of viable cells from the initial number” value (S. epidermidis [1]; 2 mg/mL and 4 mg/mL, culturing for 16 to 32 hours, initial 6.5×10^6 CFU/mL) was ≤ 1.5 log10 (CFU/mL) and the “growth (viable cell count)” value (S. epidermidis [1]; agarobiose concentrations of 2 mg/mL or more) was “inhibited”. For the same molecule, the “growth (viable cell count)” value (S. aureus [2]) was “inhibited”, the “cell viability (green/red fluorescence)” value (S. aureus [3]) was “caused the death of S. aureus” and the “growth around disk (zone of inhibition)” value (S. aureus [4]) was “did not grow at all”. The “concentration at which growth was completely inhibited” value ([5]; liquid M9-based medium, 37° C., 200 rpm, OD600) was 2 mg/mL and the “growth around disk (zone of inhibition)” value (S. epidermidis [6]) was “did not grow at all”.

For O=C[C@@H](O)[C@@H]1OC[C@H](O)[C@H]1O [AHG, 3,6-anhydro-L-galactose], the “concentration at which growth was almost completely inhibited” value (S. aureus (KCCM12256); [7]) was 8 mg/mL and the “concentration at which growth was almost completely inhibited” value [5, 7] was 8 mg/mL.

With O=C[C@H](O)[C@@H](O)[C@@H](O)[C@H](O)CO [galactose, reference compound] the growth inhibition (S. aureus (KCCM12256); [7]) was “not inhibited at all”.

For OC[C@H]1OC(O)[C@H](O)[C@@H](O[C@@H]2O[C@H]3CO[C@@H]([C@@H]2O)[C@@H]3O)[C@H]1O (stereo partly drawn) [neoagarobiose, reference compound], the “concentration at which growth was completely inhibited” value (S. aureus (KCCM12256)) was greater than 20 mg/mL.
